Laboratory results: patent US20030083241A1, “Use of somatostatin receptor agonists in the treatment of human disorders of sleep hypoxia and oxygen deprivation” (priority 2001, published 2003)

Key:
[1] = system: GERD symptoms; assay: Clinical observation of GERD symptoms in a terminal cancer patient given octreotide; type: in vivo, human
Description: Development of the present invention was stimulated by an event in Applicant's clinical practice of oncology. Octretotide was added to the treatment program of a patient with terminal cancer because the patient's cancer concentrated radiolabelled octreotide on a nuclear medicine scan. Treatment was initiated with subcutaneous octreotide at a dose of 150 microgram twice daily, then three times daily, and then finally the patient was shifted to a longer-acting depot formulation of octreotide (Sandostatin LAR) that was given intramuscularly on a monthly basis.

[2] = system: GHRH hormone secretion; conditions: in vivo; cited from earlier work
[3] = system: TNF-alpha, Interleukin-1 beta and Interleukin-6; conditions: cited from earlier work
[4] = system: obstructive sleep apnea; conditions: octreotide given as therapy for the endocrine disorder; cited from earlier work

## C[C@@H](O)[C@@H]1NC(=O)[C@H](CCCCN)NC(=O)[C@@H](Cc2c[nH]c3ccccc23)NC(=O)[C@H](Cc2ccccc2)NC(=O)[C@@H](NC(=O)[C@H](N)Cc2ccccc2)CSSC[C@@H](C(=O)N[C@H](CO)[C@@H](C)O)NC1=O [octreotide, octreotide acetate]
[1]; one patient with terminal cancer, subcutaneous 150 microgram twice, then three times daily, then monthly IM Sandostatin LAR, symptoms present for many years
  GERD symptoms after initiation of octreotide administration: rapid and complete disappearance of GERD symptoms
[1]; same patient, until death from a complication of the cancer unrelated to therapy
  duration of control of GERD symptomatology: maintained for several months
[2]
  GHRH hormone secretion: inhibited
[3]
  secretion of TNF-alpha, Interleukin-1 beta and Interleukin-6: inhibit
[4]
  obstructive sleep apnea in patients with acromegaly: ameliorated in many patients
